Legend:
[1] = Relative solubility by turbidity in aqueous buffers (pH 1.5, 4.5, 6.8, 7.4); format: physicochemical; conditions: for turbidity threshold (L, M, H) 1.4: pH 1.5 buffer (SGF); for turbidity threshold (L, M, H) 4.5: pH 4.5 buffer (SIF); for turbidity threshold (L, M, H) 6.8: pH 6.8 buffer (SIF); for turbidity threshold (L, M, H) 7.4: pH 7.4 buffer (HEPES)
Experimental: As an indication of relative solubility, the turbidity of compounds in aqueous solutions is assessed. To assess possible compound properties in different physiological compartments, such as stomach, intestine, and blood, a series of aqueous buffers with varying pH is used. Thus each compound is diluted into four different physiologically relevant buffers and solution turbidity is measured by spectrophotometry.
Compounds are dissolved at a concentration of 25 mM in dimethyl sulfoxide, then serially diluted 1:1 into a 96 well plate, diluting 10 times in pure dimethyl sulfoxide, with the final well of each row a dimethyl sulfoxide blank. In an assay plate, 99 μL of appropriate buffer is added to each well, and 1 μL of each sample dilution is added to the buffer, achieving a range of final total concentrations in aqueous solutions having different pH. The buffers used are Simulated Gastric Fluid (SGF-pH 1.5) 0.5M NaCl, pH 1.5; Simulated Intestinal fluid (SIF-pH 4.5 and pH 6.8) 0.05M NaH2PO4, pH 4.5 and 6.8; and Hepes Buffer (HEPES-pH 7.4) 10 mM HEPES, 150 mM NaCl, pH 7.4. Control compounds pyrene, estriol and propranolol HCl are also assessed. Plates are spun and then mixed for 1 minute, and the absorbance is read using a Tecan Safire II to read wavelengths in the visible range (490, 535, and 650 nm) at four locations per well, reflecting the degree of turbidity present. The average optical density for each wavelength in each well is graphed vs. compound concentration, and the concentration at which the curve crosses a threshold O.D. of 0.01 for each wavelength is reported as the endpoint turbidity assay result. The average of the three wavelengths is used to compare turbidity of compounds. Compounds are considered to have low solubility if the threshold concentration is <31.3 μM, moderate solubility if the threshold concentration is 31.3 μM to 250 μM, and high solubility if the threshold concentration is >250 μM.
The following table indicates the relative solubility (L=low, M=moderate, H=high) based on turbidity threshold concentration at each pH for exemplary compounds according to the invention: […]

B-Raf = B-Raf (Homo sapiens, UniProt P15056); assay: B-Raf kinase activity assay (AlphaScreen, biotin-MEK1 substrate); conditions: 100 μM ATP, 100 nM biotin-MEK1, 45 minutes at room temperature; read-out: Biochemical activity (IC50 μM) B-Raf
B-Raf, sequence (P15056 whole entry): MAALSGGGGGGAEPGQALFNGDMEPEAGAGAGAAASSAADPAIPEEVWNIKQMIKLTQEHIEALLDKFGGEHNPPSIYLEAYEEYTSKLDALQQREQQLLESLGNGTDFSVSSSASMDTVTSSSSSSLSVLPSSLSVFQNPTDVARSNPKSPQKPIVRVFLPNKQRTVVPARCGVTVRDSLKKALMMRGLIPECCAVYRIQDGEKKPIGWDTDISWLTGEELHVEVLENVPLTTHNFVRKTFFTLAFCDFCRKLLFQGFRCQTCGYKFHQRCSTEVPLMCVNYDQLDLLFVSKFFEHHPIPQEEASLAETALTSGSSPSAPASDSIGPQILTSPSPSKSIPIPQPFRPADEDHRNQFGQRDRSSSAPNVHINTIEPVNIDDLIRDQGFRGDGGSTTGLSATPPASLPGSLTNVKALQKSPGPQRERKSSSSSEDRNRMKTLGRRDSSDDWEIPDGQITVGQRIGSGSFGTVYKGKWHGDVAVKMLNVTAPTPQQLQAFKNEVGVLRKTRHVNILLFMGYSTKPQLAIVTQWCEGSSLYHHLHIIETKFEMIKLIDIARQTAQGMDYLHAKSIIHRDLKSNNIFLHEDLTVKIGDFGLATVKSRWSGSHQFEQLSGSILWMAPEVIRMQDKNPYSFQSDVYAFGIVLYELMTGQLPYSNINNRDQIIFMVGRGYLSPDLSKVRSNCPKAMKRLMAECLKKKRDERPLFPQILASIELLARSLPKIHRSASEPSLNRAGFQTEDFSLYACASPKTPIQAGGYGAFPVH
Experimental: (§1) Assays for biochemical and cell based activity are known in the art, for example, as described in PCT publication WO 2007/002433, the disclosure of which is hereby incorporated by reference as it relates to such assays. For example, the biochemical activity IC50 values are determined with respect to inhibition of B-Raf kinase activity, c-Raf-1 kinase activity, or B-Raf V600E kinase activity, where inhibition of phosphorylation of a peptide substrate is measured as a function of compound concentration. Compounds to be tested are diluted in dimethyl sulfoxide to a concentration of 0.1 mM. These are serially diluted 15 μL into 30 μL of dimethyl sulfoxide seven times in 96 well plates for a total of 8 dilution points, and for each dilution point 1 μL is added to a well of an assay plate. Plates are prepared such that each well in a 384 well plate contains 1 μL of compound in 10 μL, volume with 0.1 ng Raf enzyme (i.e. any of B-Raf, c-Raf-1 or B-Raf V600E, Upstate Biotechnology or prepared by methods known to one of skill in the art), 50 mM HEPES, pH 7.0, 50 mM NaCl, 2 mM MgCl2, 1 mM MnCl2, 0.01% Tween-20, 1 mM DTT, and 100 nM biotin-MEK1 as substrate. The reaction is started with addition of 10 μL of 200 μM ATP (i.e. final 100 μM ATP). After incubation of the kinase reaction for 45 minutes at room temperature, 5 μL/well of Stop Solution is added (25 mM Hepes pH 7.5, 100 mM EDTA, 0.01% BSA with donor beads (Streptavidin coated beads, Perkin Elmer), acceptor beads (Protein A coated, Perkin Elmer), and anti phosphor MEK1/2 antibody (CellSignal), each at final concentration 10 μg/mL). The plates are incubated for 3 hours at room temperature and read on Envision reader (Perkin Elmer). Phosphorylation of Mek1 results in binding of the anti-phosphor-MEK1/2 antibody and association of the donor and acceptor beads such that signal correlates with kinase activity. The signal vs. compound concentration is used to determine the IC50.

B-Raf V600E = B-Raf V600E (Homo sapiens, UniProt P15056, V600E); assay: B-Raf V600E kinase activity assay (AlphaScreen, biotin-MEK1 substrate); conditions: 100 μM ATP, 100 nM biotin-MEK1, 45 minutes at room temperature, read-out: Biochemical activity (IC50 μM) V600E
B-Raf V600E, sequence (P15056 whole entry V600E): as the sequence (P15056 whole entry) above, with V600E counted along it
Experimental: as §1

| SMILES | turbidity threshold (L, M, H) 1.4 [1] | turbidity threshold (L, M, H) 4.5 [1] | turbidity threshold (L, M, H) 6.8 [1] | turbidity threshold (L, M, H) 7.4 [1] | IC50 (B-Raf) | IC50 (B-Raf V600E) |
| --- | --- | --- | --- | --- | --- | --- |
| CCCS(=O)(=O)Nc1ccc(F)c(C(=O)c2c[nH]c3ncc(-c4ccc5cnn(C)c5c4)cc23)c1F [P-0027, Propane-1-sulfonic acid {2,4-difluoro-3-[5-(1-methyl-1H-indazol-6-yl)-1H-pyrrolo[2,3-b]pyridine-3-carbonyl]-phenyl}-amide] | L (low solubility if the threshold concentration is <31.3 μM) | L (low solubility if the threshold concentration is <31.3 μM) | L (low solubility if the threshold concentration is <31.3 μM) | L (low solubility if the threshold concentration is <31.3 μM) | – | – |
| CCCS(=O)(=O)Nc1ccc(F)c(C(=O)c2c[nH]c3ncc(-c4ccc5c(cnn5C)c4)cc23)c1F [P-0028, Propane-1-sulfonic acid {2,4-difluoro-3-[5-(1-methyl-1H-indazol-5-yl)-1H-pyrrolo[2,3-b]pyridine-3-carbonyl]-phenyl}-amide] | L (low solubility if the threshold concentration is <31.3 μM) | L (low solubility if the threshold concentration is <31.3 μM) | L (low solubility if the threshold concentration is <31.3 μM) | L (low solubility if the threshold concentration is <31.3 μM) | – | – |
| CC(C)(C)OC(=O)N1CCC(n2cc(-c3cnc4[nH]cc(C(=O)c5c(F)ccc(NS(=O)(=O)c6ccc(C(F)(F)F)cc6)c5F)c4c3)cn2)CC1 [P-1003, 4-(4-{3-[2,6-Difluoro-3-(4-trifluoromethyl-benzenesulfonylamino)-benzoyl]-1H-pyrrolo[2,3-b]pyridin-5-yl}-pyrazol-1-yl)-piperidine-1-carboxylic acid tert-butyl ester] | – | – | – | – | < 0.1 µM | < 10 µM |
| CCCS(=O)(=O)Nc1ccc(F)c(C(=O)c2c[nH]c3ncc(-c4cnc(NC5CC5)nc4)cc23)c1F [P-1504, Propane-1-sulfonic acid {3-[5-(2-cyclopropylamino-pyrimidin-5-yl)-1H-pyrrolo[2,3-b]pyridine-3-carbonyl]-2,4-difluoro-phenyl}-amide] | L (low solubility if the threshold concentration is <31.3 μM) | M (moderate solubility if the threshold concentration is 31.3 μM to 250 μM) | M (moderate solubility if the threshold concentration is 31.3 μM to 250 μM) | M (moderate solubility if the threshold concentration is 31.3 μM to 250 μM) | – | – |
| CCCS(=O)(=O)Nc1ccc(F)c(C(=O)c2c[nH]c3ncc(-c4cnc(NCCOC)nc4)cc23)c1F [P-1505, Propane-1-sulfonic acid (2,4-difluoro-3-{5-[2-(2-methoxy-ethylamino)-pyrimidin-5-yl]-1H-pyrrolo[2,3-b]pyridine-3-carbonyl}-phenyl)-amide] | L (low solubility if the threshold concentration is <31.3 μM) | L (low solubility if the threshold concentration is <31.3 μM) | L (low solubility if the threshold concentration is <31.3 μM) | M (moderate solubility if the threshold concentration is 31.3 μM to 250 μM) | – | – |
| COCCNc1ncc(-c2cnc3[nH]cc(C(=O)c4c(F)ccc(NS(=O)(=O)c5cc(F)ccc5F)c4F)c3c2)cn1 [P-1507, N-(2,4-Difluoro-3-{5-[2-(2-methoxy-ethylamino)-pyrimidin-5-yl]-1H-pyrrolo[2,3-b]pyridine-3-carbonyl}-phenyl)-2,5-difluoro-benzenesulfonamide] | L (low solubility if the threshold concentration is <31.3 μM) | L (low solubility if the threshold concentration is <31.3 μM) | L (low solubility if the threshold concentration is <31.3 μM) | L (low solubility if the threshold concentration is <31.3 μM) | – | – |
| CCCS(=O)(=O)Nc1ccc(F)c(C(=O)c2c[nH]c3ncc(-c4cnc(N5CCC5)nc4)cc23)c1F [P-1512, Propane-1-sulfonic acid {3-[5-(2-azetidin-1-yl-pyrimidin-5-yl)-1H-pyrrolo[2,3-b]pyridine-3-carbonyl]-2,4-difluoro-phenyl}-amide] | L (low solubility if the threshold concentration is <31.3 μM) | L (low solubility if the threshold concentration is <31.3 μM) | L (low solubility if the threshold concentration is <31.3 μM) | L (low solubility if the threshold concentration is <31.3 μM) | – | – |
| CCCS(=O)(=O)Nc1ccc(F)c(C(=O)c2c[nH]c3ncc(-c4cnc(NC)nc4)cc23)c1F [P-1514, Propane-1-sulfonic acid {2,4-difluoro-3-[5-(2-methylamino-pyrimidin-5-yl)-1H-pyrrolo[2,3-b]pyridine-3-carbonyl]-phenyl}-amide] | L (low solubility if the threshold concentration is <31.3 μM) | L (low solubility if the threshold concentration is <31.3 μM) | M (moderate solubility if the threshold concentration is 31.3 μM to 250 μM) | L (low solubility if the threshold concentration is <31.3 μM) | – | – |
| CCCS(=O)(=O)Nc1ccc(F)c(C(=O)c2c[nH]c3ncc(-c4cnc(NCCN(C)C)nc4)cc23)c1F [P-1515, Propane-1-sulfonic acid (3-{5-[2-(2-dimethylamino-ethylamino)-pyrimidin-5-yl]-1H-pyrrolo[2,3-b]pyridine-3-carbonyl}-2,4-difluoro-phenyl)-amide] | L (low solubility if the threshold concentration is <31.3 μM) | M (moderate solubility if the threshold concentration is 31.3 μM to 250 μM) | M (moderate solubility if the threshold concentration is 31.3 μM to 250 μM) | M (moderate solubility if the threshold concentration is 31.3 μM to 250 μM) | – | – |
| CCCS(=O)(=O)Nc1ccc(F)c(C(=O)c2c[nH]c3ncc(-c4cnc(NCCCOC)nc4)cc23)c1F [P-1516, Propane-1-sulfonic acid (2,4-difluoro-3-{5-[2-(3-methoxy-propylamino)-pyrimidin-5-yl]-1H-pyrrolo[2,3-b]pyridine-3-carbonyl}-phenyl)-amide] | L (low solubility if the threshold concentration is <31.3 μM) | L (low solubility if the threshold concentration is <31.3 μM) | L (low solubility if the threshold concentration is <31.3 μM) | L (low solubility if the threshold concentration is <31.3 μM) | – | – |

Reference: patent US9440969B2, “Compounds and methods for kinase modulation, and indications therefor” (PLEXXIKON INC., priority 2009, dated 2016)
